Assay results as given in patent US3968129A, “Azidophenol amine compounds and therapeutic compositions” (Boehringer Mannheim G.m.b.H., priority 1974, dated 1976).

How the values were obtained:
cardiac β-receptor = test: Cardiac β-receptor blocking activity: inhibition of isoprenalin-induced heart frequency increase (tachycardia) in wake rabbits; assay type: in vivo; details: wake rabbit; for Blocking of Isoprenalin Tachycardia in wake rabbits: Heartbeat Frequency x±sx: isoprenalin 1 μg/kg i.v. 30 min after infusion; for DE250: interpolated dosage which limits the frequency increase to 250 beats/min
Description: (§1) The following tests were carried out to determine the cardiac β-receptor blocking activity and the acute toxicity of certain compounds representative of the invention, as well as of a conventional comparison compound.
The cardiac β-receptor blocking activity of the test compounds was evaluated by determination of the inhibition of isoprenalin-induced heart frequency increase in wake rabbits. This type of inhibition is a typical property of β-receptor blocking bio catalysts.
The tests were carried out on rabbits weighing between 2 to 3.5 kg settled in wooden cages with EKG-electrodes inserted into the hind-quarters s.c. The heart frequency was read via an integrator (15 seconds) as a digital value. The substances to be tested were infused through a small tube to the ear vein of the rabbits over a period of 15 minutes 30 minutes after completion of the infusion, isoprenalin (1 μg/kg) was intravenously injected. The results were set forth in terms of the reduction of the heartbeat increase induced by isoprenalin and a value (DE250) calculated as the dosage required to limit such increase to 250 heart beats/min.

in vivo = details: iv; for LD50: mouse, i.v. into tail vein within 5 seconds, dosage at which 50% of the mice die, read-out: Acute Toxicity LD50 Mouse; for therapeutic index (LD50/DE250): ratio of LD50 (mouse i.v.) to DE250 (wake rabbit i.v.)
Description: as §1
In another series of tests, the acute toxicity in mice of the test compounds by intravenous administration was determined as a measure of the tolerance (calculated as LD50 = dosage at which 50% of the mice die). The substances were injected, within a time period of 5 seconds, in dissolved form into the tail vein of 5 male and 5 female mice each, in increasing dosages. From the results (percentage of dead animals) at the various dosages, the mean lethal dosage was ascertained graphically or by way of programmed test analysis.
The results of both series of tests are set forth in the table below which contains, in addition, a calculated value expressing the ratio of LD50 : DE250 for each test compound.

| SMILES | Blocking of Isoprenalin Tachycardia in wake rabbits: Heartbeat Frequency x±sx (cardiac β-receptor; dosage 0.1 mg/kg i.v.) | Blocking of Isoprenalin Tachycardia in wake rabbits: Heartbeat Frequency x±sx (cardiac β-receptor; dosage 0.5 mg/kg i.v.) | Blocking of Isoprenalin Tachycardia in wake rabbits: Heartbeat Frequency x±sx (cardiac β-receptor; dosage 2.0 mg/kg i.v.) | Blocking of Isoprenalin Tachycardia in wake rabbits: Heartbeat Frequency x±sx (cardiac β-receptor; dosage 5.0 mg/kg i.v.) | Blocking of Isoprenalin Tachycardia in wake rabbits: Heartbeat Frequency x±sx (cardiac β-receptor; dosage printed "10" mg/kg i.v. (Compound 3 line)) | DE250 (cardiac β-receptor) | LD50 (in vivo) | therapeutic index (LD50/DE250) (in vivo) | Blocking of Isoprenalin Tachycardia in wake rabbits: Heartbeat Frequency x±sx (cardiac β-receptor; dosage 1.0 mg/kg i.v.) | Blocking of Isoprenalin Tachycardia in wake rabbits: Heartbeat Frequency x±sx (cardiac β-receptor; dosage 0.01 mg/kg i.v.) | Blocking of Isoprenalin Tachycardia in wake rabbits: Heartbeat Frequency x±sx (cardiac β-receptor; dosage 10.0 mg/kg i.v.) | Blocking of Isoprenalin Tachycardia in wake rabbits: Heartbeat Frequency x±sx (cardiac β-receptor; dosage 20.0 mg/kg i.v.) |
| --- | --- | --- | --- | --- | --- | --- | --- | --- | --- | --- | --- | --- |
| CC(C)(C)NCC(O)COc1cccc(N=[N+]=[N-])c1 (stereo not shown) [Compound 3, 3-(2-Hydroxy-3-tert.-butylaminopropoxy)-azidobenzene] | 317±10 Beats/minute | 256±10 Beats/minute | 222± 6 Beats/minute | 235±10 Beats/minute | 244± 8 Beats/minute | 0.8 mg/kg i.v. | 50 mg/kg | 60 | – | – | – | – |
| CC(C)(C)NCC(O)COc1ccccc1N=[N+]=[N-] (stereo not shown) [Compound 4, 2-(2-Hydroxy-3-tert.-butylaminopropoxy)-azidobenzene] | 282± 5 Beats/minute | 237± 7 Beats/minute | – | 245±14 Beats/minute | – | 0.5 mg/kg i.v. | 29 mg/kg | 58 | 246± 6 Beats/minute | – | – | – |
| CC(C)NCC(O)COc1ccccc1N=[N+]=[N-] (stereo not shown) [Compound 1, 2-(2-Hydroxy-3-isopropylaminopropoxy)-azidobenzene] | 252±10 Beats/minute | 250± 5 Beats/minute | – | 223± 6 Beats/minute | – | 0.3 mg/kg i.v. | 25 mg/kg | 80 | 236±11 Beats/minute | 288± 8 Beats/minute | – | – |
| CC(=O)Nc1ccc(OCC(O)CNC(C)C)cc1 (stereo not shown) [Comparison Compound A, 4-[2-hydroxy-3-isopropylaminopropoxy]acetanilide, reference compound] | – | 307± 7 Beats/minute | 250± 4 Beats/minute | 246± 7 Beats/minute | – | 2.5 mg/kg i.v. | 69 mg/kg | – | 264± 9 Beats/minute | – | 217± 4 Beats/minute | 225± 6 Beats/minute |
| CC(C)NCC(O)COc1cccc(N=[N+]=[N-])c1 (stereo not shown) [Compound 2, 3-(2-Hydroxy-3-isopropylaminopropoxy)-azidobenzene] | – | 282± 9 Beats/minute | – | 205± 9 Beats/minute | – | 1.3 mg/kg i.v. | 50 mg/kg | 40 | 258±10 Beats/minute | – | – | – |
